In brackets after ≈: the same amount, converted by molar mass.
What was measured:
Format in all cases: functional
Enterococcus faecalis = experiment: Antibacterial activity against Enterococcus faecalis ATCC 19433 incubated for 18 to 24 hrs by CLSI based microdilution broth method; details: time 18-24 hrs
Streptococcus pyogenes = experiment: Antibacterial activity against Streptococcus pyogenes ATCC 12344 incubated for 18 to 24 hrs by CLSI based microdilution broth method; details: time 18-24 hrs
Escherichia coli = experiment: Antibacterial activity against Escherichia coli CCUGT incubated for 18 to 24 hrs by CLSI based microdilution broth method; details: Escherichia coli, CCUGT; time 18-24 hrs; read-out: MIC
Bacillus subtilis = experiment: Antibacterial activity against Bacillus subtilis ATCC 6633 incubated for 18 to 24 hrs by CLSI based microdilution broth method; details: time 18-24 hrs
Acinetobacter baumannii = experiment: Antibacterial activity against Acinetobacter baumannii ATCC 17978 incubated for 18 to 24 hrs by CLSI based microdilution broth method; details: Acinetobacter baumannii, ATCC 17978; time 18-24 hrs
Pseudomonas aeruginosa = experiment: Antibacterial activity against Pseudomonas aeruginosa ATCC 27853 incubated for 18 to 24 hrs by CLSI based microdilution broth method; details: Pseudomonas aeruginosa, ATCC 27853; time 18-24 hrs
Klebsiella pneumoniae = experiment: Antibacterial activity against Klebsiella pneumoniae ATCC 13833 incubated for 18 to 24 hrs by CLSI based microdilution broth method; details: Klebsiella pneumoniae, ATCC 13833; time 18-24 hrs; read-out: MIC
Staphylococcus aureus = experiment: Antibacterial activity against Staphylococcus aureus ATCC 25923 incubated for 18 to 24 hrs by CLSI based microdilution broth method; details: time 18-24 hrs

| Compound | MIC (Enterococcus faecalis) [µg/mL] | MIC (Streptococcus pyogenes) [µg/mL] | MIC (Escherichia coli) [µg/mL] | MIC (Bacillus subtilis) [µg/mL] | MIC (Acinetobacter baumannii) [µg/mL] | MIC (Pseudomonas aeruginosa) [µg/mL] | MIC (Klebsiella pneumoniae) [µg/mL] | MIC (Staphylococcus aureus) [µg/mL] |
| --- | --- | --- | --- | --- | --- | --- | --- | --- |
| N=C(N)NCCCCCCCCCN(CCCCCCCCCNC(=N)NCC1CC1)C(=O)N(CCCCCCCCCNC(=N)N)CCCCCCCCCNC(=N)NCC1CC1.O=C(O)C(F)(F)F | 4 | 2 | 8 | 4 | 8 | 16 | 16 | 4 |
| N=C(N)NCCCCCCCCN(CCCCCCCCNC(=N)NC1CCCC1)C(=O)N(CCCCCCCCNC(=N)N)CCCCCCCCNC(=N)NC1CCCC1.O=C(O)C(F)(F)F | 1 | 1 | 1 | 1 | 4 | 8 | 1 | 0.25 |
| CSCCNC(=N)NCCCCCCCCN(CCCCCCCCNC(=N)N)C(=O)N(CCCCCCCCNC(=N)N)CCCCCCCCNC(=N)NCCSC.O=C(O)C(F)(F)F | 2 | 1 | 2 | 1 | 16 | 32 | 4 | 0.5 |
| CNC(=S)NCCCCCCCCN(CCCCCCCCNC(=N)NCC1CC1)C(=O)N(CCCCCCCCNC(=N)NCC1CC1)CCCCCCCCNC(=S)NC.O=C(O)C(F)(F)F | 4 | 4 | 8 | 4 | 128 | 64 | 16 | 2 |
| C/C=C/CNC(=N)NCCCCCCCCN(CCCCCCCCNC(=N)N)C(=O)N(CCCCCCCCNC(=N)N)CCCCCCCCNC(=N)NC/C=C/C.O=C(O)C(F)(F)F | 2 | 2 | 2 | 2 | 8 | 16 | 2 | 1 |
| N=C(N)NCCCCCCCCN(CCCCCCCCNC(=N)NCC1CC1)C(=O)N(CCCCCCCCNC(=N)NCC1CC1)CCCCCCNC(=N)N.O=C(O)C(F)(F)F | 1 | 0.5 | 1 | 0.5 | 16 | 16 | 1 | 0.25 |
| CNC(=O)NCCCCCCCCN(CCCCCCCCNC(=N)NCC1CC1)C(=O)N(CCCCCCCCNC(=N)NCC1CC1)CCCCCCCCNC(=O)NC.O=C(O)C(F)(F)F | 8 | 4 | 16 | 4 | 64 | 128 | 16 | 4 |
| O=C(O)C(F)(F)F.[N-]=[N+]=NCCCCCCCCN(CCCCCCCCNC(=N)NCC1CC1)C(=O)N(CCCCCCCCN=[N+]=[N-])CCCCCCCCNC(=N)NCC1CC1 | 8 | 8 | 16 | 32 | 64 | 128 | 16 | 4 |
| N=C(N)NCCCCCCCCN(CCCCCCCCNC(=N)NCC1CC1)C(=O)N(CCCCCCCCNC(=N)N)CCCCCCNC(=N)NCC1CC1.O=C(O)C(F)(F)F | 4 | 4 | 8 | 4 | 64 | 128 | 4 | 1 |
| CC(C)=CCC/C(C)=C/CNC(=N)NCCCCCCCCN(CCCCCCCCNC(=N)N)C(=O)N(CCCCCCCCNC(=N)N)CCCCCCCCNC(=N)NC/C=C(\C)CCC=C(C)C.O=C(O)C(F)(F)F | 2 | 2 | 2 | 2 | 4 | 8 | 2 | 1 |
| CN[C@H](CC(C)C)C(=O)N[C@H]1C(=O)N[C@@H](CC(N)=O)C(=O)N[C@H]2C(=O)N[C@H]3C(=O)N[C@H](C(=O)N[C@H](C(=O)O)c4cc(O)cc(O)c4-c4cc3ccc4O)[C@H](O)c3ccc(c(Cl)c3)Oc3cc2cc(c3O[C@@H]2O[C@H](CO)[C@@H](O)[C@H](O)[C@H]2O[C@H]2C[C@](C)(N)[C@H](O)[C@H](C)O2)Oc2ccc(cc2Cl)[C@H]1O [VANCOMYCIN] | 1 (≈ 0.69 µM) | 1 (≈ 0.69 µM) | – | 0.5 (≈ 0.345 µM) | – | – | – | – |
| CC(C)CNC(=N)NCCCCCCCCN(CCCCCCCCNC(=N)N)C(=O)N(CCCCCCCCNC(=N)N)CCCCCCCCNC(=N)NCC(C)C.O=C(O)C(F)(F)F | 4 | 4 | 4 | 2 | 8 | 16 | 4 | 2 |
| N=C(N)NCCCCCCCCN(CCCCCCCCNC(=N)NCC1CC1)C(=O)N(CCCCCCNC(=N)N)CCCCCCNC(=N)NCC1CC1.O=C(O)C(F)(F)F | 4 | 1 | 8 | 2 | 16 | 16 | 4 | 0.5 |
| CCCCCCCCCC(=O)N[C@@H](Cc1c[nH]c2ccccc12)C(=O)N[C@H](CC(N)=O)C(=O)N[C@@H](CC(=O)O)C(=O)N[C@@H]1C(=O)NCC(=O)N[C@@H](CCCN)C(=O)N[C@@H](CC(=O)O)C(=O)N[C@H](C)C(=O)N[C@@H](CC(=O)O)C(=O)NCC(=O)N[C@H](CO)C(=O)N[C@@H]([C@H](C)CC(=O)O)C(=O)N[C@@H](CC(=O)c2ccccc2N)C(=O)O[C@@H]1C | 1 (≈ 0.617 µM) | 0.5 (≈ 0.309 µM) | – | 1 (≈ 0.617 µM) | – | – | – | 0.12 (≈ 0.074 µM) |
| N=C(N)NCCCCCCN(CCCCCCCCNC(=N)NCC1CC1)C(=O)N(CCCCCCCCNC(=N)NCC1CC1)CCCCCCNC(=N)N.O=C(O)C(F)(F)F | 4 | 1 | 2 | 1 | 32 | 32 | 2 | 0.25 |
| N=C(N)NCCCCCCCCN(CCCCCCCCNC(=N)NCCC12CC3CC(CC(C3)C1)C2)C(=O)N(CCCCCCCCNC(=N)N)CCCCCCCCNC(=N)NCCC12CC3CC(CC(C3)C1)C2.O=C(O)C(F)(F)F | 16 | 16 | 32 | 16 | 64 | 128 | 32 | 8 |
| N=C(N)NCCCCCCCCN(CCCCCCNC(=N)NCC1CC1)C(=O)N(CCCCCCCCNC(=N)N)CCCCCCNC(=N)NCC1CC1.O=C(O)C(F)(F)F | 8 | 1 | 4 | 1 | 64 | 128 | 4 | 0.25 |
| N=C(N)NCCCCCCCCN(CCCCCCCCNC(=N)NCCN1CCOCC1)C(=O)N(CCCCCCCCNC(=N)N)CCCCCCCCNC(=N)NCCN1CCOCC1.O=C(O)C(F)(F)F | 2 | 1 | 4 | 1 | 32 | 64 | 4 | 1 |
| COCCNC(=N)NCCCCCCCCN(CCCCCCCCNC(=N)N)C(=O)N(CCCCCCCCNC(=N)N)CCCCCCCCNC(=N)NCCOC.O=C(O)C(F)(F)F | 1 | 0.5 | 1 | 0.5 | 8 | 16 | 2 | 0.5 |
| N=C(N)NCCCCCCCN(CCCCCCCNC(=N)NCC1CC1)C(=O)N(CCCCCCNC(=N)N)CCCCCCNC(=N)NCC1CC1.O=C(O)C(F)(F)F | 4 | 4 | 16 | 2 | 32 | 32 | 8 | 1 |
